Drawing on PubChem BioAssay (NCI), this text covers GI50 and TGI for nine compounds.

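1) Cells in 96-well plates. 2) Compound, 48 h, 5 concentrations. 3) Linear interpolation between surrounding doses. 4) Unreached endpoint = highest concentration. The concentration for 50% growth inhibition is given as GI50. The concentration for full growth arrest is given as TGI.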 Residues, ends and D or L forms follow the SMILES beside them. *: point of attachment. Cbz = O=C(OCc1ccccc1)*

Test systems include SN12C renal; T-47D breast; UACC-257 melanoma; KM12 colon; HCT-15 colon; BT-549 breast; SF-295 CNS; LOX IMVI melanoma.
Common to all, as to test: NCI anticancer screen, dose series, 48 h

For the compound `CN(C)CCNC(=O)c1ccc2oc3cc4ccccc4c(=O)n3c2c1`, the GI50 with SN12C renal is 46.6 µM; in the experiment with T-47D breast, 34.6 µM; with UACC-257 melanoma, 23.9 µM; with KM12 colon it was 10.5 µM; with HCT-15 colon, 28.2 µM; in the experiment on BT-549 breast, 27.4 µM. In addition, the GI50 in the experiment with SF-295 CNS was 28 µM; with LOX IMVI melanoma, 42.2 µM. For the same compound, the TGI in the experiment with SN12C renal is greater than 100 µM; in the experiment on T-47D breast it was greater than 100 µM; with UACC-257 melanoma, 58 µM; in the experiment on KM12 colon it was 77.8 µM; with HCT-15 colon, greater than 100 µM; in the experiment with BT-549 breast, 66.2 µM. Besides, the TGI in the experiment with SF-295 CNS and in the experiment on LOX IMVI melanoma was greater than 100 µM in each case.

With `CC(=O)N[C@@H](Cc1ccc(OP(=O)(O)O)cc1)C(=O)N[C@H]1CCC(=O)N2CCC[C@@H](C(=O)NCc3ccccc3)N2C1=O`, the GI50 with SN12C renal, in the experiment on T-47D breast, in the experiment on UACC-257 melanoma, with KM12 colon, in the experiment on HCT-15 colon and in the experiment on BT-549 breast was greater than 25 µM throughout. Moreover, the GI50 in the experiment on SF-295 CNS and in the experiment with LOX IMVI melanoma was greater than 25 µM in each case. Besides, the TGI in the experiment with SN12C renal, in the experiment with T-47D breast, in the experiment with UACC-257 melanoma, in the experiment with KM12 colon, with HCT-15 colon and in the experiment with BT-549 breast was greater than 25 µM each time. Besides, the TGI in the experiment on SF-295 CNS and with LOX IMVI melanoma was greater than 25 µM throughout.

Turning to `COC(=O)c1oc2c(C(=O)/C=C/c3ccc(OC)cc3)c(OCCN3CCOCC3)ccc2c1C`, the GI50 in the experiment with SN12C renal was 1.78 µM; with T-47D breast, 1.51 µM; with UACC-257 melanoma it was 1.99 µM; with KM12 colon, 1.77 µM; in the experiment on HCT-15 colon, 1.46 µM; with BT-549 breast, 2.42 µM. The GI50 was 1.85 µM with SF-295 CNS and 1.4 µM in the experiment with LOX IMVI melanoma. The TGI is 5.91 µM in the experiment with SN12C renal; 6.83 µM in the experiment with T-47D breast; 4.25 µM with UACC-257 melanoma; 3.78 µM in the experiment on KM12 colon; 3.12 µM in the experiment on HCT-15 colon; 7.91 µM in the experiment with BT-549 breast. Besides, the TGI turned out to be 5.2 µM in the experiment on SF-295 CNS and 2.79 µM in the experiment with LOX IMVI melanoma.

Consider `CC(C)C(=O)c1c(C(F)(F)F)n([O-])c2ccccc2[n+]1=O`, for which the GI50 was 1.77 µM in the experiment on SN12C renal; 0.827 µM in the experiment on T-47D breast; 2.74 µM in the experiment on UACC-257 melanoma; 0.563 µM with KM12 colon; 2.31 µM in the experiment with HCT-15 colon; 1.06 µM in the experiment on BT-549 breast. Further, the results for the GI50 with SF-295 CNS and in the experiment on LOX IMVI melanoma were 0.553 µM and 1.85 µM, respectively. The TGI in the experiment on SN12C renal is 3.97 µM; with T-47D breast it was 3.49 µM; in the experiment on UACC-257 melanoma it was 7.8 µM; in the experiment on KM12 colon it was 1.65 µM; with HCT-15 colon, greater than 27.1 µM; in the experiment with BT-549 breast, 3.08 µM. Besides, the TGI in the experiment on SF-295 CNS came to 2 µM.

`CNC(=O)c1cccc(C#Cc2cncnc2Nc2ccc(OCc3cccc(F)c3)c(Cl)c2)c1`: the GI50 in the experiment on SN12C renal was 12 µM; with T-47D breast, 3.18 µM; in the experiment on UACC-257 melanoma, 9.72 µM; with KM12 colon, 7.22 µM; in the experiment with HCT-15 colon, 6.52 µM; with BT-549 breast, 8.56 µM. Besides, the GI50 with SF-295 CNS was 5.45 µM; with LOX IMVI melanoma it was 5.77 µM. Also, the TGI in the experiment with SN12C renal was greater than 25 µM; with T-47D breast, 15.7 µM; in the experiment with UACC-257 melanoma it was greater than 25 µM; in the experiment on KM12 colon it was greater than 19.4 µM; in the experiment on HCT-15 colon, greater than 25 µM; in the experiment with BT-549 breast, greater than 25 µM. Further, the TGI with SF-295 CNS was 20.5 µM; in the experiment with LOX IMVI melanoma it was greater than 17 µM.

For the compound `CC(C)C[C@@H](C=O)NC(=O)[C@H](CC(C)C)NC(=O)[C@H](CC(C)C)NC(=O)OCc1ccccc1` (Cbz-Leu-Leu-Leu-aldehyde), the GI50 was 0.315 µM with SN12C renal; 0.222 µM in the experiment on T-47D breast; 0.251 µM in the experiment on UACC-257 melanoma; 0.281 µM in the experiment with KM12 colon; 0.465 µM in the experiment on HCT-15 colon; 0.337 µM with BT-549 breast. The GI50 is 0.39 µM in the experiment with SF-295 CNS and 0.206 µM with LOX IMVI melanoma. Besides, the TGI in the experiment on SN12C renal was 1.01 µM; with T-47D breast, 0.598 µM; in the experiment with UACC-257 melanoma, 0.628 µM; in the experiment with KM12 colon it was 0.751 µM; in the experiment on HCT-15 colon, 10.2 µM; in the experiment on BT-549 breast, 1.25 µM. The TGI turned out to be 1.77 µM in the experiment with SF-295 CNS and 0.46 µM with LOX IMVI melanoma.

For the compound `Cc1ccccc1C(C(=O)NC1CCCCC1)N(C(=O)CNc1ccc(C#N)cc1)c1cccc(F)c1` (configuration not stated), the GI50 is 29.7 µM in the experiment on SN12C renal; 31.4 µM in the experiment with T-47D breast; 50 µM in the experiment on UACC-257 melanoma; greater than 100 µM in the experiment on KM12 colon; greater than 100 µM in the experiment on HCT-15 colon; 32.5 µM in the experiment with BT-549 breast. The GI50 is 13.8 µM in the experiment on SF-295 CNS and 44.9 µM in the experiment with LOX IMVI melanoma. Besides, the TGI in the experiment with SN12C renal, in the experiment with T-47D breast, in the experiment with UACC-257 melanoma, in the experiment with KM12 colon, in the experiment on HCT-15 colon and with BT-549 breast was greater than 100 µM throughout. For the same compound, the TGI in the experiment with SF-295 CNS is 44.6 µM; with LOX IMVI melanoma, greater than 100 µM.

For the compound `COc1ccc2c(c1)C(c1cc(OC)c3c(c1)OCO3)C1=C(COC1=O)N2` (configuration not stated), the GI50 is 0.684 µM with SN12C renal; 6.67 µM in the experiment with T-47D breast; 0.227 µM with KM12 colon; 0.472 µM in the experiment on HCT-15 colon; 2.08 µM in the experiment with BT-549 breast; 0.0919 µM in the experiment with SF-295 CNS. In the experiment on LOX IMVI melanoma, the GI50 was 0.66 µM. The TGI was greater than 100 µM in the experiment with SN12C renal; greater than 100 µM in the experiment on T-47D breast; greater than 100 µM in the experiment with UACC-257 melanoma; 3.25 µM in the experiment with KM12 colon; greater than 65.1 µM in the experiment with HCT-15 colon; greater than 100 µM in the experiment on BT-549 breast. The TGI is greater than 34 µM in the experiment on SF-295 CNS and greater than 100 µM in the experiment on LOX IMVI melanoma.

Regarding `O=c1oc2ccc(Br)cc2c(=O)n1-c1ccc(Cl)cc1F`, the GI50 in the experiment on SN12C renal was 0.82 µM; in the experiment with T-47D breast it was 0.597 µM; with UACC-257 melanoma, 0.915 µM; in the experiment on KM12 colon it was 2.03 µM; in the experiment on HCT-15 colon it was 1.7 µM; with BT-549 breast, 0.48 µM. Also, the GI50 in the experiment with SF-295 CNS is 1.78 µM; with LOX IMVI melanoma it was 0.827 µM. Besides, the TGI was found to be 5.16 µM in the experiment on SN12C renal; 5.65 µM in the experiment with T-47D breast; 5.59 µM in the experiment on UACC-257 melanoma; 4.87 µM in the experiment with KM12 colon; 9.52 µM in the experiment on HCT-15 colon; 2.49 µM with BT-549 breast. Besides, the TGI came out at 3.54 µM with SF-295 CNS and 4.54 µM in the experiment with LOX IMVI melanoma.
